For experiment [1], the target named is T1, rat TAAR1 (Rattus norvegicus, UniProt Q923Y9).
T1 construct: expressed in transfected cells; host or cells: HEK293 (ATCC # CRL-1573), stably transfected with pIRESneo2 expression plasmid
Nature of the experiment: TAAR1 radioligand binding with [3H]-rac-2-(1,2,3,4-tetrahydro-1-naphthyl)-2-imidazoline, membranes of stably transfected HEK293 cells. The settings on record: second value of the cell, read-out: Ki (μM) mouse/rat: rat. How it is done: (§1) For the construction of expression plasmids the coding sequences of human, rat and mouse TAAR 1 were amplified from genomic DNA essentially as described by Lindemann et al.. The Expand High Fidelity PCR System (Roche Diagnostics) was used with 1.5 mM Mg^2+ and purified PCR products were cloned into pCR2.1-TOPO cloning vector (Invitrogen) following the instructions of the manufacturer. PCR products were subcloned into the pIRESneo2 vector (BD Clontech, Palo Alto, Calif.), and expression vectors were sequence verified before introduction in cell lines.
(§2) HEK293 cells (ATCC # CRL-1573) were cultured essentially as described by Lindemann et al. (2005). For the generation of stably transfected cell lines HEK293 cells were transfected with the pIRESneo2 expression plasmids containing the TAAR coding sequences (described above) with Lipofectamine 2000 (Invitrogen) according to the instructions of the manufacturer, and 24 hrs post transfection the culture medium was supplemented with 1 mg/ml G418 (Sigma, Buchs, Switzerland). After a culture period of about 10 d clones were isolated, expanded and tested for responsiveness to trace amines (all compounds purchased from Sigma) with the cAMP Biotrak Enzyme immunoassay (EIA) System (Amersham) following the non-acetylation EIA procedure provided by the manufacturer.
(§3) Cells at confluence were rinsed with ice-cold phosphate buffered saline without Ca^2+ and Mg^2+ containing 10 mM EDTA and pelleted by centrifugation at 1000 rpm for 5 min at 4° C. The pellet was then washed twice with ice-cold phosphate buffered saline and the cell pellet was frozen immediately by immersion in liquid nitrogen and stored until use at −80° C. The cell pellet was then suspended in 20 ml HEPES-NaOH (20 mM), pH 7.4 containing 10 mM EDTA, and homogenized with a Polytron (PT 3000, Kinematica) at 10,000 rpm for 10 s. The homogenate was centrifuged at 48,000×g for 30 min at 4° C. and the pellet resuspended in 20 ml HEPES-NaOH (20 mM), pH 7.4 containing 0.1 mM EDTA (buffer A), and homogenized with a Polytron at 10,000 rpm for 10 s. The homogenate was then centrifuged at 48,000×g for 30 min at 4° C. and the pellet resuspended in 20 ml buffer A, and homogenized with a Polytron at 10,000 rpm for 10 s. Protein concentration was determined by the method of Pierce (Rockford, Ill.). The homogenate was then centrifuged at 48,000×g for 10 min at 4° C., resuspended in HEPES-NaOH (20 mM), pH 7.0 including MgCl2 (10 mM) and […] homogenized with a Polytron at 10,000 rpm for 10 s.
(§4) The binding assay was performed at 4° C. in a final volume of 1 ml, and with an incubation time of 30 min. The radioligand [^3H]-rac-2-(1,2,3,4-tetrahydro-1-naphthyl)-2-imidazoline was used at a concentration equal to the calculated Kd value of 60 nM to give a bound at around 0.1% of the total added radioligand concentration, and a specific binding which represented approximately 70-80% of the total binding. Non-specific binding was defined as the amount of [^3H]-rac-2-(1,2,3,4-tetrahydro-1-naphthyl)-2-imidazoline bound in the presence of the appropriate unlabelled ligand (10 μM). Competing ligands were tested in a wide range of concentrations (10 pM-30 μM). […] Each experiment was performed in duplicate. All incubations were terminated by rapid filtration through UniFilter-96 plates (Packard Instrument Company) and glass filter GF/C, pre-soaked for at least 2 h in polyethylenimine 0.3%, and using a Filtermate 96 Cell Harvester (Packard Instrument Company). The tubes and filters were then washed 3 times with 1 ml aliquots of cold buffer B. Filters were not dried and soaked in Ultima gold (45 μl/well, Packard Instrument Company) and bound radioactivity was counted by a TopCount Microplate Scintillation Counter (Packard Instrument Company).

Experiment [2] deals with T2, mouse TAAR1 (Mus musculus, UniProt Q923Y8).
T2 construct: expressed in transfected cells; host or cells: HEK293 (ATCC # CRL-1573), stably transfected with pIRESneo2 expression plasmid
Described as above. The settings on record: first value of the cell, read-out: Ki (μM) mouse/rat: mouse. The protocol:
as §1, §2, §3, §4

T1 sequence (Q923Y9 whole entry): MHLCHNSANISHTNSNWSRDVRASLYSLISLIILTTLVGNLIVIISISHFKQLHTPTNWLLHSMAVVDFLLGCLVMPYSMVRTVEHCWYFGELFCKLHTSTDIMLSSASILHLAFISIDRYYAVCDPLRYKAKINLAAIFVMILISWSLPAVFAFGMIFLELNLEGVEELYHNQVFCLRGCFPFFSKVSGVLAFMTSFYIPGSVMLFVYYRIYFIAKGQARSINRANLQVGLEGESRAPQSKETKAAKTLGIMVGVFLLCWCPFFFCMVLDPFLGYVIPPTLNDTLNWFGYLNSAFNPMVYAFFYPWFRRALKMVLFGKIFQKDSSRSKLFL
T2 sequence (Q923Y8 whole entry): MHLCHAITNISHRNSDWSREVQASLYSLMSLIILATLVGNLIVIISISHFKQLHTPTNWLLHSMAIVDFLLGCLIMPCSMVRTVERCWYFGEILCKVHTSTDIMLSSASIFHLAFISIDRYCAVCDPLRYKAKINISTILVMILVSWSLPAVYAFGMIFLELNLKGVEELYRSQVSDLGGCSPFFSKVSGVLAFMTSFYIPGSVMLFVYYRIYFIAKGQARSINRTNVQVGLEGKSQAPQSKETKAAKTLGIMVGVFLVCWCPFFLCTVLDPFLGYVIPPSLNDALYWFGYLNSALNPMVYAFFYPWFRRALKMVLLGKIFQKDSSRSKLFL

For the molecule `Cc1nc(C(=O)Nc2ccc(CC[C@H]3COC(N)=N3)cc2)c(C(F)(F)F)o1` [Example 216, (S)-N-(4-(2-(2-Amino-4,5-dihydrooxazol-4-yl)ethyl)phenyl)-2-methyl-5-(trifluoromethyl)oxazole-4-carboxamide], the Ki in experiment [1] is 0.0061 µM; in experiment [2] it was 0.0027 µM.
On the same counts, the results for `NC1=N[C@@H](CCc2ccc(NC(=O)Oc3cccc(C(F)(F)F)c3)cc2)CO1` [Example 149, {4-[2-((S)-2-Amino-4,5-dihydro-oxazol-4-yl)-ethyl]-phenyl}-carbamic acid 3-trifluoromethyl-phenyl ester] are 0.0092 µM and 0.0097 µM.
On the same counts, the results for `NC1=N[C@@H](CCc2ccc(NC(=O)c3cnc(N4CCCCC4)nc3)cc2)CO1` [Example 123, (S)-N-(4-(2-(2-Amino-4,5-dihydrooxazol-4-yl)ethyl)phenyl)-2-(piperidin-1-yl)pyrimidine-5-carboxamide] are 0.0017 µM and 0.0007 µM.
The matching figures for `COc1ncccc1C(=O)Nc1ccc(CC[C@H]2COC(N)=N2)cc1` [Example 115, N-{4-[2-((S)-2-Amino-4,5-dihydro-oxazol-4-yl)-ethyl]-phenyl}-2-methoxy-nicotinamide]: 0.0024 µM and 0.0029 µM.
Turning to `CCc1cnc(C(=O)Nc2ccc(CC[C@@H]3N=C(N)O[C@H]3C)cc2)cn1` [Example 227, 5-Ethyl-pyrazine-2-carboxylic acid {4-[2-((4S,5S)-2-amino-5-methyl-4,5-dihydro-oxazol-4-yl)-ethyl]-phenyl}-amide], the values for the Ki in experiment [1] and in experiment [2] were 0.0059 µM and 0.007 µM, respectively.
The matching figures for `Cc1ccc(C(=O)Nc2ccc(CC[C@H]3COC(N)=N3)cc2)s1` [Example 201, (S)-N-(4-(2-(2-Amino-4,5-dihydrooxazol-4-yl)ethyl)phenyl)-5-methylthiophene-2-carboxamide]: 0.0007 µM and 0.0005 µM.
On the same counts, the results for `CCc1cnc(C(=O)Nc2ccc(CC[C@H]3COC(N)=N3)cc2)cn1` [Example 208, (S)-N-(4-(2-(2-Amino-4,5-dihydrooxazol-4-yl)ethyl)phenyl)-5-ethylpyrazine-2-carboxamide] are 0.0023 µM and 0.0028 µM.
The matching figures for `C[C@H]1OC(N)=N[C@H]1CCc1ccc(NC(=O)c2ccc(Cl)cc2)cc1` [Example 206, N-(4-(2-((4S,5R)-2-Amino-5-methyl-4,5-dihydrooxazol-4-yl)ethyl)phenyl)-4-chlorobenzamide]: 0.0013 µM and 0.0076 µM.
With `COc1ccc(OC(=O)Nc2ccc(CC[C@H]3COC(N)=N3)cc2)cc1` [Example 147, {4-[2-((S)-2-Amino-4,5-dihydro-oxazol-4-yl)-ethyl]-phenyl}-carbamic acid 4-methoxy-phenyl ester], the values for the Ki in experiment [1] and in experiment [2] were 0.0003 µM and 0.0006 µM, respectively.
On to `NC1=N[C@@H](CCc2ccc(NC(=O)C(F)(F)c3ccc(Cl)c(Cl)c3)cc2)CO1` [Example 125, (S)-N-(4-(2-(2-Amino-4,5-dihydrooxazol-4-yl)ethyl)phenyl)-2-(3,4-dichlorophenyl)-2,2-difluoroacetamide], for which the Ki in experiment [1] worked out at 0.0011 µM; in experiment [2] it was 0.0006 µM.
The matching figures for `NC1=N[C@@H](CCc2ccc(NC(=O)C3CC3)cc2)CO1` [Example 46, Cyclopropanecarboxylic acid {4-[2-((S)-2-amino-4,5-dihydro-oxazol-4-yl)-ethyl]-phenyl}-amide]: 0.0018 µM and 0.0042 µM.
On the same counts, the results for `CC1(C(=O)Nc2ccc(CC[C@H]3COC(N)=N3)cc2)CC1` [Example 41, 1-Methyl-cyclopropanecarboxylic acid {4-[2-((S)-2-amino-4,5-dihydro-oxazol-4-yl)-ethyl]-phenyl}-amide] are 0.0094 µM and 0.0091 µM.
Take `NC1=N[C@@H](CCc2ccc(NC(=O)CCc3ccccc3Cl)cc2)CO1` [Example 80, N-{4-[2-((S)-2-Amino-4,5-dihydro-oxazol-4-yl)-ethyl]-phenyl}-3-(2-chloro-phenyl)-propionamide]: the Ki in experiment [1] stood at 0.0011 µM; in experiment [2], 0.0014 µM.
The matching figures for `NC1=N[C@@H](CCc2ccc(NC(=O)c3cccc(Br)n3)cc2)CO1` [Example 112, 6-Bromo-pyridine-2-carboxylic acid {4-[2-((S)-2-amino-4,5-dihydro-oxazol-4-yl)-ethyl]-phenyl}-amide]: 0.0005 µM and 0.0013 µM.
The matching figures for `NC1=N[C@@H](CCc2ccc(N3CCN(c4ccc(F)cc4)C3=O)cc2)CO1` [Example 56, 1-{4-[2-((S)-2-Amino-4,5-dihydro-oxazol-4-yl)-ethyl]-phenyl}-3-(4-fluoro-phenyl)-imidazolidin-2-one]: 0.0009 µM and 0.0094 µM.
The matching figures for `CCc1nc(C(=O)Nc2ccc(CC[C@H]3COC(N)=N3)cc2)co1` [Example 217, (S)-N-(4-(2-(2-Amino-4,5-dihydrooxazol-4-yl)ethyl)phenyl)-2-ethyloxazole-4-carboxamide]: 0.0025 µM and 0.0051 µM.
With `CC(C(=O)Nc1ccc(CC[C@H]2COC(N)=N2)cc1)c1ccc(Cl)cc1` (stereo partly drawn) [Example 58, N-{4-[2-((S)-2-Amino-4,5-dihydro-oxazol-4-yl)-ethyl]-phenyl}-2-(4-chloro-phenyl)-propionamide], the Ki in experiment [1] amounted to 0.0007 µM; in experiment [2], 0.0014 µM.
The matching figures for `COC(C(=O)Nc1ccc(CC[C@H]2COC(N)=N2)cc1)c1ccc(Br)cc1` (stereo partly drawn) [Example 73, N-{4-[2-((S)-2-Amino-4,5-dihydro-oxazol-4-yl)-ethyl]-phenyl}-2-(4-bromo-phenyl)-2-methoxy-acetamide]: 0.0049 µM and 0.0026 µM.
The matching figures for `C#Cc1ccc(NC(=O)c2ccc(CC[C@H]3COC(N)=N3)cc2)nc1` [Example 152, (S)-4-(2-(2-Amino-4,5-dihydrooxazol-4-yl)ethyl)-N-(5-ethynylpyridine-2-yl)benzamide]: 0.0002 µM and 0.008 µM.
On the same counts, the results for `NC1=N[C@@H](CCc2ccc(NC(=O)c3ccc4ccccc4n3)cc2)CO1` [Example 91, Quinoline-2-carboxylic acid {4-[2-((S)-2-amino-4,5-dihydro-oxazol-4-yl)-ethyl]-phenyl}-amide] are 0.0002 µM and 0.0005 µM.
Consider `Cc1nc(C(=O)Nc2ccc(CC[C@H]3COC(N)=N3)cc2)c(C)o1` [Example 179, (S)-N-(4-(2-(2-Amino-4,5-dihydrooxazol-4-yl)ethyl)phenyl)-2,5-dimethyloxazole-4-carboxamide], for which the Ki in experiment [1] is 0.0023 µM; in experiment [2], 0.0059 µM.
The matching figures for `CCc1ocnc1C(=O)Nc1ccc(CC[C@H]2COC(N)=N2)cc1` [Example 213, (S)-N-(4-(2-(2-Amino-4,5-dihydrooxazol-4-yl)ethyl)phenyl)-5-ethyloxazole-4-carboxamide]: 0.0022 µM and 0.0015 µM.
With `NC1=N[C@@H](CCc2ccc(NC(=O)C3CCC(F)(F)CC3)cc2)CO1` [Example 40, 4,4-Difluoro-cyclohexanecarboxylic acid {4-[2-((S)-2-amino-4,5-dihydro-oxazol-4-yl)-ethyl]-phenyl}-amide], the Ki was determined as 0.0187 µM in experiment [1] and 0.0036 µM in experiment [2].

These data come from patent publication US8354441B2, “Oxazoline derivatives” (Hoffmann-La Roche Inc., priority 2009, dated 2013).
